Like-named read-outs stand apart in the source and are kept apart here. Where a SMILES comes first, the peptide text is derived from it. Where no end group is shown, it is not given here.
Experiments:
[1] = tested on: Enterococcus faecalis CECT 795; test: Antimicrobial activity (colony count after 2 h incubation); format: cell-based; details: synthetic peptide 0.05 mM
Experimental: (§1) The antimicrobial activity is determined in accordance with the method of A. Pellegrini, C. Deltting, U. Thomas, P. Hunziker (Isolation and characterization of four bactericidal domains in the bovine β-lactoglobulin Biochimica et Biophysica Acta, 2001, 1526:131-140) using as microorganisms Escherichia coli [American Type Culture Collection (ATCC), Rockville, Md., USA] ATCC 25922, Listeria innocua [Colección Española de Cultivos Tipo (CECT) Valencia, Spain] CECT 910T, Staphylococcus epidermidis CECT 231, Enterococcus faecalis CECT 795, Serratia marcescens CECT 854 and Staphylococcus carnosus CECT 4491T.
(§2) The bacterial suspensions are inoculated at 1% in the Tryptose Soy Broth (TSB) for Escherichia coli, Serratia marcescens and the strains of the Staphylococcus genus, or in the brain-heart infusion (BHI) broth for Enterococcus faecalis and Listeria innocua. The incubation is carried out at 37° C., except in the case of Serratia marcescens, which is at 30° C.
(§3) The bacterial innoculum, from which the work is begun, is obtained after incubating a colony grown in TSB-Agar or BHI-Agar in 10 mL of TSB or BHI overnight at 37a or 30° C. The bacterial suspension (1 mL) is diluted 1/50 with the corresponding culture medium, being incubated at the appropriate temperature for each strain up to achieving a population density of 1-4×10^8 colony-forming units (CFU) per mL. The culture is centrifuged at 2000×g for 10 minutes, the sedimented bacteria are washed twice with 15 mL phosphate buffer (pH 7.4) and the population is adjusted to 10^6 CFU/mL. On a sterile multi-well plate (Greiner Labortechnik, Frickenhausen, Germany), 50 μL of the bacterial suspension, 50 μL of the substance to be tested and 100 μL of the phosphate buffer are mixed with 2% of the appropriate culture medium in each case, and the mixture is incubated at 37° C. or 30° C. for 2 hours. After this time, the mixture is diluted to 10^−5, 100 μL of each one of the dilutions are added to TSB-Agar or BHI-Agar plates and the plates are incubated for 24 hours, after which time the colony count is taken.
(§4) The following equation is used for calculating the antimicrobial activity:
(§5) [formula] [formula] [formula] Measurement of the Angiotensin-Converting Enzyme Inhibitory Activity (ACEIa)

[2] = tested on: Escherichia coli ATCC 25922; test: as above; format: cell-based; details: synthetic peptide 0.05 mM
Experimental: as §1, §2, §3, §4, §5

[3] = tested on: Listeria innocua CECT 910T; test: as above; format: cell-based; details: synthetic peptide 0.05 mM
Experimental: as §1, §2, §3, §4, §5

[4] = tested on: Serratia marcescens CECT 854; test: as above; format: cell-based; details: synthetic peptide 0.05 mM
Experimental: as §1, §2, §3, §4, §5

[5] = tested on: Staphylococcus carnosus CECT 4491T; test: as above; format: cell-based; details: synthetic peptide 0.05 mM
Experimental: as §1, §2, §3, §4, §5

[6] = tested on: Staphylococcus epidermidis CECT 231; test: as above; format: cell-based; details: synthetic peptide 0.05 mM
Experimental: as §1, §2, §3, §4, §5

[7] = target: T1, angiotensin-converting enzyme (ACE) (Oryctolagus cuniculus, UniProt P12822); test: Angiotensin-converting enzyme inhibitory activity (ACEIa) in vitro; format: biochemical
T1 sequence (P12822 34-1310): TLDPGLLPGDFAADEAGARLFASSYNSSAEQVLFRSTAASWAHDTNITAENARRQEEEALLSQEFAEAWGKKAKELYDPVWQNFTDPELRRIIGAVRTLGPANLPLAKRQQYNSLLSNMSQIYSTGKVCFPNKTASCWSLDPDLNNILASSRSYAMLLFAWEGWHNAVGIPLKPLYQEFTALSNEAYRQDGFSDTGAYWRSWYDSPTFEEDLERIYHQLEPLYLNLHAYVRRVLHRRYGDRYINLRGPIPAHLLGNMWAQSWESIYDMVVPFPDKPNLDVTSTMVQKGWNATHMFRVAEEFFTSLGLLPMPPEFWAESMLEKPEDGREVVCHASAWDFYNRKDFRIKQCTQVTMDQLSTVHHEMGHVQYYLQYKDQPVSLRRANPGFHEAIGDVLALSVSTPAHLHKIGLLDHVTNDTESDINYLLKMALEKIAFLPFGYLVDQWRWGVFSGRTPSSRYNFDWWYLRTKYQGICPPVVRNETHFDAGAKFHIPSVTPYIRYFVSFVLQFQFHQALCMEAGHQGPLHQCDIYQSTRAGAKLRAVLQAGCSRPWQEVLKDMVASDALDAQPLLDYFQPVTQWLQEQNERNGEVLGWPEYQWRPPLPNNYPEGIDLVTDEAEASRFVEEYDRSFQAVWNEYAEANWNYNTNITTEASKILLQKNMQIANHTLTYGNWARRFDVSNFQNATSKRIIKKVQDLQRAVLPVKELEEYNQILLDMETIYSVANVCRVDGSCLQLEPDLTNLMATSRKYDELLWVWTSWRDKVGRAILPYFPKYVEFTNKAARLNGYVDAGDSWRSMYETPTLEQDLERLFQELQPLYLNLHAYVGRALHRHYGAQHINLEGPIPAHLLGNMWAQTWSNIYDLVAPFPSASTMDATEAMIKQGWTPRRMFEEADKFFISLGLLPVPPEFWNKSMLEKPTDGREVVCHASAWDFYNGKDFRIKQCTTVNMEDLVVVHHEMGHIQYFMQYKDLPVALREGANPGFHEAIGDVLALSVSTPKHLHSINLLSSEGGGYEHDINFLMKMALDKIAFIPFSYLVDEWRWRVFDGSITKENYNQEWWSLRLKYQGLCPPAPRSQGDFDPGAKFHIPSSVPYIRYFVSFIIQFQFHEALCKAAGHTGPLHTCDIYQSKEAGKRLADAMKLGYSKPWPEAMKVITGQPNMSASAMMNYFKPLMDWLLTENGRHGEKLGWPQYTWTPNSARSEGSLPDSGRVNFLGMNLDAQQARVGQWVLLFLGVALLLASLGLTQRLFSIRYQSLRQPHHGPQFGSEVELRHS
Experimental: The ACE-inhibitory activity is measured in vitro by the method of D. W. Cushman and H. S. Cheung (Spectrophotometric assay and properties of angiotensin-converting enzyme in rabbit lung. Biochemical Pharmacology, 1971, 20:1637-1648) later modified by […]. Yoon, D. Y. Yu, […]. Chung (Novel angiotensin-1-converting enzyme inhibitory peptides derived from recombinant human αs1-casein expressed in Escherichia coli. Journal of Dairy Research 1999, 66,431-439). The substrate, […], Sigma, Chemical Co, St. Louis, Mo., USA), is dissolved in 0.1 M borate buffer with 0.3 M NaCl, pH 8.3, to obtain a final concentration of 5 mM. 40 μL of each one of the samples whose ACE-inhibitory activity is to be assayed are added to 100 μL of substrate. The ACE enzyme ([…], Sigma) is added, dissolved in 50% glycerol and diluted at the point in time of performing the test in 1/10 bidistilled water. The reaction is carried out at 37° C. for 30 minutes in water bath. The enzyme is inactivated by reducing the pH with 150 μl HCL 1N. The hipuric acid formed is extracted with 1000 μL ethyl acetate. Following agitation in vortex for 20 seconds, it is centrifuged at 3000×g for 10 minutes at ambient temperature. 750 μL are taken from the organic phase that is heat-evaporated at 95° C. for 10 minutes. The hipuric acid residue is re-dissolved in 800 μL bidistilled water and, after agitating for 20 seconds, the absorbance at 228 nm is measured in a Dur-70 spectrophotometer from Beckman Instruments, Inc., Fullerton, USA. The following equation is used for calculating the percentage of ACE-inhibitory activity: [formula] The blank is used to correct the background absorbance. This blank contains substrate, enzyme and 20 μL bidistilled water instead of sample, and the reaction is halted at time zero. The control entailed one hundred percent of the enzymatic action on the substrate in absence of inhibitors and contains […] of water instead of sample and is incubated for the same length of time as the sample. The results are shown as IC50 (μM) or concentration at which the activity of the enzyme is inhibited by 50%. The protein concentration is determined by means of the bicinchoninic acid test (Pierce-Rockord, Ill., USA), using bovine seroalbumin as a pattern.

[8] = target: T1, angiotensin-converting enzyme (ACE); details: peptides from Manchego cheese, Gómez-Ruiz et al. 2004; read-out: ACE-inhibitory activity IC50; cited from earlier work
[9] = tested on: spontaneously hypertensive rats (SHR); test: Antihypertensive activity in spontaneously hypertensive rats (SHR), tail cuff SBP and DBP; format: in vivo, rat; details: 2 mg/kg, intragastric catheter
Experimental: The effect of several of the peptides identified on the blood pressure of spontaneously hypertensive rats (SHR) is studied. The peptides are chemically synthesized for this study.
The study is conducted with male SHR rats 17-20 weeks of age weighing 300 to 350 g, from Charles River Laboratories España S. A. The rats are kept in cages, five per cage, maintaining a stable temperature of 25° C., with 12-hour light-darkness cycles, taking water and food ad libitum. […] The SBP and DBP values are determined by taking 3 consecutive measurements and calculating the average of the three values for each one of these two variables. […]
The products to be tested are administered by means of an intragastric catheter within a time span ranging from 9 a.m. to 10 a.m., and the dosage tested is administered dissolved in 1 ml of distilled water. SBP and DBP readings are taken prior to the administration, and periodic measurements of these variables are also made every 2 hours following the administration, up to 8 hours post-administration. […]
The results are grouped and the ±average of the standard error of the measurement (SEM) for a minimum of 6 homogeneous tests is calculated. […]

[10] = read-out: ACE-inhibitory activity CI50, synthetic peptides of FC1 and FD1 subfractions

| Molecule | Antimicrobial activity E. faecalis [1] | Antimicrobial activity E. coli [2] | Antimicrobial activity L. innocua [3] | Antimicrobial activity S. marcescens [4] | Antimicrobial activity S. carnosus [5] | antimicrobial activity against S. carnosus (in words) [5] | Antimicrobial activity S. epidermidis [6] | further results |
| --- | --- | --- | --- | --- | --- | --- | --- | --- |
| LKKISQ [SEQ. ID. No. 1, LKKISQ] | 0 | 0.33 | 1.11 | 0 | >6 | bactericidal activity | 3.6 | ACE-inhibitory activity (in words) [7]: potent ACE-inhibitory activity; IC50 [7, 10]: 2.1 µM |
| VRYL [SEQ. ID. No. 11, previously identified 205-208 fragment of ovine αs2-casein from Manchego cheese] |  |  |  |  |  |  |  | IC50 [8]: 24.1 µM |
| CC(C)[C@H](NC(=O)[C@H](Cc1ccc(O)cc1)NC(=O)[C@@H]1CCCN1)C(=O)O [SEQ. ID. No. 15, PYV] (H-Pro-Tyr-Val-OH; N-terminus and C-terminus assumed) |  |  |  |  |  |  |  | IC50 ([7]; synthetic peptides resulting from simulated gastrointestinal digestion, read-out: ACE-inhibitory activity IC50): 741 µM; times less ACE-inhibitory activity than the starting peptide ([7]; versus PYVRYL): 370 times; lowering of the SBP and DBP [9]: significant lowering of the SBP and DBP; time of peak effect on the SBP after administration [9]: 2 h |
| AYFYPEL [SEQ. ID. No. 13, AYFYPEL] |  |  |  |  |  |  |  | IC50 ([7]; read-out: ACE-inhibitory activity CI50, synthetic peptides of bovine casein permeate fractions): 7.5 µM |
| HLPLPLL [SEQ. ID. No. 14, HLPLPLL] |  |  |  |  |  |  |  | IC50 ([7]; synthetic peptides of bovine casein permeate fractions, read-out: ACE-inhibitory activity CI50): 34.2 µM |
| VDQHQKAMKPWTQPKTNAIPYVRYL (Derived from casein) [SEQ. ID. No. 2, ovine αs2-casein fragment 184-208] | 0 | 0.07 | 1.71 | 0 | >6 | bactericidal activity | 0.61 |  |
| LKKISQYYQKFAWPQYL (Derived from casein) [SEQ. ID. No. 3, ovine αs2-casein fragment 165-181] | 3.32 | 4.63 | >6 | 0.38 | >6 | bactericidal activity | >6 | antimicrobial activity against E. coli (in words) [2]: high degree of antimicrobial activity |
| PYVRYL [SEQ. ID. No. 7, PYVRYL] |  |  |  |  |  |  |  | IC50 [7, 10]: 1.94 µM |

Source: patent publication US8354502B2, “Bioactive peptides identified in enzymatic hydrolyzates of milk caseins and method of obtaining same” (Consejo Superior de Investigaciones Cientificas, priority 2005, dated 2013)
